US11865099B2, “Product based on iron bis-glycinate chelate and alginic acid and/or water-soluble salts thereof, formulations thereof, and pharmaceutical uses thereof” (LABORATORI BALDACCI S.P.A., priority 2015, dated 2024)

Assay: Iron dissolution test, rotating basket apparatus, sample in dialysis membrane, 0.01 N HCl
Type: physicochemical
Conditions: for percentage of dissolved iron: after 120 minutes; for dissolution rate: sample in 1.0 ml 0.01 N HCl (method A) in dialysis membrane, linear trend
[1] = 1.0 ml 0.01 N HCl, dialysis membrane

Procedure: The dissolution test was performed with rotating basket apparatus according to Eur. Pharmacopoeia 9th Edition choosing hydrochloric acid to simulate the gastric fluid.
A first series of assays were performed placing the product into a dialysis membrane with adequate volumes of hydrochloric acid (1.0 or 2.0 ml). In this case, the dissolution medium was 0.01 N (pH=2) hydrochloric acid, as the dialysis membrane is not compatible with pH values lower than 2.
Experimental method: the dialysis membrane (Spectrum Labs Spectra/Por 3; MWCO; 3500 kDa) was hydrated for one night (16 hours) in deionized water before the test. […] The bags were closed and placed into the basket of the dissolution apparatus.
Then, the basket was immersed in 100 ml of 0.01 N HCl and the dissolution test was carried out at a temperature of 37° C. with a rotation speed of 75 rpm/min, withdrawing, at appropriate times, samples of dissolution phase that were immediately replaced with fresh solvent in order to maintain constant sink condition.
Experimental method: after hydration of the dialysis membrane for one night in deionized water, three exactly weighted samples of Feralgina® having different weights (range 20-30 mg) were dissolved with 1.0 ml (method A) or with 2.0 ml (method B) of hydrochloric acid (0.01 N) and the resulting solutions were placed into the hydrated dialysis membrane. The bags were perfectly closed and placed into the basket of the dissolution apparatus. […] The basket was immersed in 100 ml of 0.01 N HCl at a temperature of 37° C., with a rotation speed of 75 rpm/min, collecting samples of dissolution medium at appropriate times immediately replaced with fresh solvent in order to keep the dissolution constant (sink condition).
The dissolution tests of TecnoFERPlus were performed with two different experimental methods that involved, in one case, the use of the dialysis membrane and experimental conditions similarly to those followed for iron sulfate and iron bisglycinate with different volumes of hydrochloric acid 0.01 N, and in the second one, the use of TecnoFERPlus (capsule) without the dialysis membrane.

Row | SMILES | amount of iron dissolved in the medium, of the total content (after 15 minutes, 1.0 ml 0.01 N HCl, dialysis membrane) | percentage of dissolved iron [1] | dissolution rate [min⁻¹]
1 | NCC(=O)[O][Fe][O]C(=O)CN [Iron bis-glycinate chelate] | about 20% | about 60% | 0.378
2 | O=S(=O)([O-])[O-].[Fe+2] [iron sulphate] | – | about 61% | 0.439
